Test results: patent publication US10370372B2, “Fused pyrimidine compound or salt thereof” (TAIHO PHARMACEUTICAL CO., LTD., priority 2015, dated 2019)
Read-outs that look alike come from different tables or passages of the source.

What was measured:
Assay type in all cases: cell-based
AR expression in LNCaP = experiment: Activity of reducing expression level of androgen receptor (Western blotting in LNCaP); conditions: Homo sapiens, read-out: AR expression reducing activity
Procedure: AR positive human prostate cancer cells LNCaP were seeded in a 6 well microplate (BD) at 3.5×10^5/well with RPMI1640 containing 5% FBS (hereinbelow, the medium is referred to as an evaluation medium), and then cultured overnight. […] After culture for 48 hours, the medium was removed and the cells were washed with PBS and added with 0.1 mL of Lysis buffer (M-PER added with Protease Inhibitor Cocktail), followed by keeping at 4° C. for 20 minutes. After cell lysis, the cell solution was centrifuged to recover the supernatant as cell lysate. […] The antibody-reacting band (anti AR receptor) was quantified by LAS Imaging System (FUJIFILM) using Super Signal West Dura Substrate (Thermo Scientific) as a detection reagent.
When the AR expression reducing activity is 50% or more, it is described as “reduced”.

human androgen receptor = target: T1, human androgen receptor (Homo sapiens, UniProt P10275); experiment: Antagonist activity for AR: MMTV-luc reporter transcription in COS-7 cells transfected with human AR, stimulated with DHT
T1 construct: expressed in transfected cells; host or cells: COS-7 cells (ATCC)
T1 sequence (P10275 1-920): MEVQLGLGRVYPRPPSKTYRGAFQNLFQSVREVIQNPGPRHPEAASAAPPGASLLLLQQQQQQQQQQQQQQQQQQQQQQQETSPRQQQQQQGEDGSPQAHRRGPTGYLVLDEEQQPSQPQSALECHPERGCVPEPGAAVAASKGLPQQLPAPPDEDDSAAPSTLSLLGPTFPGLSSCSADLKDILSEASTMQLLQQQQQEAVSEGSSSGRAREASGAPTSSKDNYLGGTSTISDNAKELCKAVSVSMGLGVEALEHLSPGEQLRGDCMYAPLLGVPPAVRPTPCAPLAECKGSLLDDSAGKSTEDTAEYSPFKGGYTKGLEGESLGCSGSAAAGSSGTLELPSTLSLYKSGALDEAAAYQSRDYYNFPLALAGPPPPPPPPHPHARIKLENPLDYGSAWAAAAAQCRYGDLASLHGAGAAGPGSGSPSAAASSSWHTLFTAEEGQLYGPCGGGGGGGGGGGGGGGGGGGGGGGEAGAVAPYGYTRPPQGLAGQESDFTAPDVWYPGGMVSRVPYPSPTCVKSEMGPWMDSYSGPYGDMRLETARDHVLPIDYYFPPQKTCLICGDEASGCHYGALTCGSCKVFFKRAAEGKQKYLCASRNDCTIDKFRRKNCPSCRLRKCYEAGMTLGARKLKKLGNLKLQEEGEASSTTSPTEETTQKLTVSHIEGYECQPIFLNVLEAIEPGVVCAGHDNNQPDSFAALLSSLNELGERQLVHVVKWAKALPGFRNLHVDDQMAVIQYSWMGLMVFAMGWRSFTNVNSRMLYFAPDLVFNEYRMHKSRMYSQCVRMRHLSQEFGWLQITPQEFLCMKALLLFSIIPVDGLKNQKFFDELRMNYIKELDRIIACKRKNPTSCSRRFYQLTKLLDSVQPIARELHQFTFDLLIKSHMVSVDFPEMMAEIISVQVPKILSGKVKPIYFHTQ
Procedure: Antagonist activity for AR was evaluated according to the following method. COS-7 cells (ATCC) were transfected with pMMTV-luc vector (reporter plasmid having, as an androgen response element, […] long terminal repeat) and pEX-hAR vector (human androgen receptor expression vector: which expresses human AR gene under control of CMV promoter) by using Nucleofector (registered trademark) Kit R (Lonza) as a transfection reagent and Amaxa (Lonza). The COS-7 cells obtained after transfection were seeded in a clear bottom 96 well microplate (BD) at 1.5×10^4/well with phenol red free RPMI1640 containing 10% charcoal-treated fetal bovine serum (hereinbelow, DCC-FBS) (hereinbelow, the medium is referred to as an evaluation medium), and then cultured overnight. […] Then, the transcription activity value of the reporter plasmid was measured. The transcription activity was measured by using Bright-Glo™ Luciferase Assay System (Promega).

[1] = test system: Human prostate cancer cells LNCaP; experiment: Inhibitory activity on androgen-dependent proliferation of prostate cancer cells; conditions: 1 nmol/L DHT, 72 hours, Cell Counting Kit-8, read-out: Proliferation inhibition concentration GI50 value
Procedure: Human prostate cancer cells LNCaP (Non-Patent Literature 5) having […] androgen receptor gene were seeded in a clear bottom 96 well microplate (BD) at 4.0×10^3/well with phenol red free RPMI1640 containing 5% DCC-FBS (hereinbelow, the medium is referred to as an evaluation medium), and then cultured overnight. […] Then, the number of viable cells was measured. The number of viable cells was measured by using Cell Counting Kit-8 (DOJINDO LABORATORIES).

[2] = test system: AR positive human prostate cancer cells VCaP; experiment: Agonist activity for AR: cell proliferation rate of VCaP cells; conditions: 5-10000 nmol/L, 72 hours, relative to evaluation medium only, more than 10% = agonist activity
Procedure: Then, the number of viable cells was measured (test group). As a control, the cells were cultured after being added with the evaluation medium only, and the number of viable cells was measured (control group). The number of viable cells was measured by using CellTiter-Glo™ Luminescent Cell Viability Assay (Promega). From the measured number of viable cells, cell proliferation rate with respect to the compound of Examples or the compound of Comparative Examples was calculated based on the number of viable cells measured in the case of using the evaluation medium only. Cell proliferation rate (%)=(Number of viable cells in test group−Number of viable cells in control group)/(Number of viable cells in control group)×100
By considering an error in the number of viable cells measured in the case of using the evaluation medium only, when the cell proliferation rate was more than 10% at any concentration of the 8 concentrations which had been evaluated, it was determined to have an agonist activity for AR.

Compound	inhibition at 10 µM (AR expression in LNCaP; 48 h) [%]	IC50 (human androgen receptor) [nM]	GI50 [1] [nM]	Cell proliferation rate (%) [2] [%]	inhibition at 10 µM (AR expression in LNCaP; 10000 nmol/L, 48 hours, vs evaluation medium control) [%]	IC50 (human androgen receptor; COS-7 cells with pMMTV-luc and pEX-hAR, 1 nmol/L DHT, 24 hours, read-out: AR antagonist IC50) [nM]
COc1ccc(Nc2ncnc3c2CCN(c2ccc(C#N)c(C(F)(F)F)c2)C3)cc1OC [Example 26, 4-(4-((3,4-Dimethoxyphenyl)amino)-5,6-dihydropyrido[3,4-d]pyrimidin-7(8H)-yl)-2-(trifluoromethyl)benzonitrile]	> 50	1100	1200	4.5	–	–
N#Cc1ccc(N2CCc3c(ncnc3Nc3ccc4c(c3)CNCC4)C2)cc1Cl [Example 37, 2-Chloro-4-(4-((1,2,3,4-tetrahydroisoquinolin-7-yl)amino)-5,6-dihydropyrido[3,4-d]pyrimidin-7(8H)-yl)benzonitrile]	> 50	690	990	4.6	–	–
Cc1cc(N2CCc3c(ncnc3Nc3ccc(C(C)(C)O)cn3)C2)ccc1[N+](=O)[O-] [Example 16, 2-(6-((7-(3-methyl-4-nitrophenyl)-5,6,7,8-tetrahydropyrido[3,4-d]pyrimidin-4-yl)amino)pyridin-3-yl)propan-2-ol]	–	–	230	−1.8	> 50	70
